This is an account of results in patent publication US20260015315A1, “AMINO LIPID COMPOUND, PREPARATION METHOD THEREFOR, COMPOSITION THEREOF AND APPLICATION THEREOF” (SHENZHEN SHENXIN BIOTECHNOLOGY CO., LTD., priority 2022, published 2026).

For this experiment, the system named is BALB/c mice. Description: In vivo delivery of lipid nanoparticle encapsulating luciferase mRNA (Fluc mRNA), IVIS imaging. The following applies: for Total flux (fluorescence expression intensity): Fluc mRNA-LNP (amino lipid:DSPC:CHO-HP:PEG2000-DMG 48:10:40.5:1.5), whole body; for Total flux (fluorescence expression intensity) / Spleen (fluorescence expression intensity) / Liver (fluorescence expression intensity): 75 μL tail vein IV, female BALB/c mice, IVIS 6 hours after injection; for Spleen (fluorescence expression intensity) / (Spleen/Total Flux) * 100% / Multiple of spleen delivery/total delivery (Spleen/Total Flux) to Compound 118 / Liver (fluorescence expression intensity): Fluc mRNA-LNP; for (Spleen/Total Flux) * 100% / Multiple of spleen delivery/total delivery (Spleen/Total Flux) to Compound 118: tail vein IV, BALB/c mice, 6 hours; for Multiple of spleen delivery/total delivery (Spleen/Total Flux) to Compound 118: relative to Compound 118. As for the experimental part: The amino lipid compound of the present disclosure, a helper lipid, a structural lipid, and a PEG-lipid were separately dissolved in absolute ethanol to prepare respective solutions at concentrations of 20 mg/mL, 10 mg/mL, 20 mg/mL, and 25 mg/mL, respectively. The above four solutions were pipetted at a molar ratio of the amino lipid compound: DSPC:CHO-HP:PEG2000-DMG of 48:10:40.5:1.5, and mixed well to prepare an alcohol phase.
(2) Encapsulation: The water phase and the alcohol phase were injected into a microfluidic chip at a flow rate of water phase:alcohol phase=12 mL/min: 4 mL/min by using a microfluidic preparation instrument (MPE-L2), and encapsulation was carried out at a flow rate of water phase:alcohol phase=9 mL/min: 3 mL/min to obtain mRNA-encapsulating lipid nanoparticle (mRNA-LNP).
(3) Dialysis: The product of step (2) was loaded in a dialysis bag and placed in a Tris Buffer-8% sucrose solution for replacement to remove ingredients such as residual ethanol, unassembled lipids. Dialysis was conducted for 2 h with magnetic stirring at room temperature and under protection from light (dialysate was replaced every 1 hour).
(4) The product of step (3) was sterilized by passing through a 0.22 μm microporous membrane, and then packaged.
Lipid nanoparticle formulations encapsulating Flue mRNA were prepared, with a concentration of Flue mRNA of 0.2 μg/μL, a mass ratio of Flue mRNA to Lipid of 1:10, a particle size of 80-130 nm, and a encapsulation efficiency of 80% or higher.
• Animal preparation: Female BALB/c mice of 6-8 weeks old were selected and raised in an SPF grade breeding room. Animal testing was conducted in strict accordance with the guidelines of national health institutions and animal ethics requirements.
In vivo Delivery: prior to injection of the test LNP formulations, the LNP formulations were gently and repeatedly inverted to thoroughly mix the formulation samples. A corresponding amount of the formulation samples were aspirated with a 1 ml insulin syringe, and the LNP formulations were injected by tail vein injection (IV), with 3 mice in duplicate per formulation. Each mouse was injected with 75 μL of the luciferase mRNA (Flue mRNA)-encapsulating lipid nanoparticle formulation prepared in Experimental Example 1.
6 hours after injection of LNP formulations, mice were injected with 200 μL D-Luciferin luciferase developing substrate (Catalog No. 122799; Manufacturer: Perkin Elmer). After the substrate was injected, the mice were anesthetized by injection of 200 μl of 2.5% avertin, and the injection time of luciferase developing substrate was recorded.
The fluorescence expression intensity induced by the lipid nanoparticle encapsulating luciferase mRNA (Flue mRNA) with a representative amino lipid compound is shown in Table 4, with the amino lipid compound 118 as a control.

The structures appear in SMILES notation.

As to `CCCCCCC(CCCCCC)OC(=O)CCCCCCCCC(CCCCCCCCC(=O)OC(CCCCCC)CCCCCC)N(CCCN(C)C)C(=O)COCCCC` [compound 119], the “Total flux (fluorescence expression intensity)” value stood at 2.65E+07, the “Spleen (fluorescence expression intensity)” value is recorded as 6.80E+06, the “(Spleen/Total Flux) * 100%” value is reported as 25.66% and the “Multiple of spleen delivery/total delivery (Spleen/Total Flux) to Compound 118” value (“Multiple … (Spleen/Total Flux) to Compound 118” below) is recorded as 22.51.
`CCCCCCC(CCCCCC)OC(=O)CCCCCCCCC(CCCCCCCCC(=O)OC(CCCCCC)CCCCCC)N(CCCN(C)C)C(=O)COCCCCC` [compound 120]: the “Total flux (fluorescence expression intensity)” value was determined as 3.48E+07, the “Spleen (fluorescence expression intensity)” value was determined as 6.46E+06, the “(Spleen/Total Flux) * 100%” value was 18.56% and the “Multiple … (Spleen/Total Flux) to Compound 118” value is reported as 16.28.
Consider `CCCCCCOCC(=O)N(CCCN(C)C)C(CCCCCCCCC(=O)OC(CCCCCC)CCCCCC)CCCCCCCCC(=O)OC(CCCCCC)CCCCCC` [compound 121], for which the “Total flux (fluorescence expression intensity)” value is reported as 3.07E+07, the “Spleen (fluorescence expression intensity)” value is 7.14E+06, the “(Spleen/Total Flux) * 100%” value was 23.26% and the “Multiple … (Spleen/Total Flux) to Compound 118” value is 20.40.
Turning to `CCCCCCCOCC(=O)N(CCCN(C)C)C(CCCCCCCCC(=O)OC(CCCCCC)CCCCCC)CCCCCCCCC(=O)OC(CCCCCC)CCCCCC` [compound 122], the “Total flux (fluorescence expression intensity)” value was 3.56E+07, the “Spleen (fluorescence expression intensity)” value is reported as 3.02E+06, the “(Spleen/Total Flux) * 100%” value worked out at 8.48% and the “Multiple … (Spleen/Total Flux) to Compound 118” value stood at 7.44.
Regarding `CCCCCCCCOCC(=O)N(CCCN(C)C)C(CCCCCCCCC(=O)OC(CCCCCC)CCCCCC)CCCCCCCCC(=O)OC(CCCCCC)CCCCCC` [compound 123], the “Total flux (fluorescence expression intensity)” value came to 5.95E+07, the “Spleen (fluorescence expression intensity)” value is 4.02E+06, the “(Spleen/Total Flux) * 100%” value is recorded as 6.76% and the “Multiple … (Spleen/Total Flux) to Compound 118” value was 5.93.
On to `CCCCCCC(CCCCCC)OC(=O)CCCCCCCCC(CCCCCCCCC(=O)OC(CCCCCC)CCCCCC)N(CCCN(C)C)C(=O)CCOCCCC` [compound 124], for which the “Total flux (fluorescence expression intensity)” value came to 3.45E+07, the “Spleen (fluorescence expression intensity)” value turned out to be 6.18E+06, the “(Spleen/Total Flux) * 100%” value came to 17.91% and the “Multiple … (Spleen/Total Flux) to Compound 118” value is listed as 15.71.
With `CCCCCCC(CCCCCC)OC(=O)CCCCCCCCC(CCCCCCCCC(=O)OC(CCCCCC)CCCCCC)N(CCCN(C)C)C(=O)CCOCCCCC` [compound 125], the “Total flux (fluorescence expression intensity)” value was 5.40E+07, the “Spleen (fluorescence expression intensity)” value worked out at 2.72E+06, the “(Spleen/Total Flux) * 100%” value came to 5.04% and the “Multiple … (Spleen/Total Flux) to Compound 118” value stood at 4.42.
As for `CCCCCCOCCC(=O)N(CCCN(C)C)C(CCCCCCCCC(=O)OC(CCCCCC)CCCCCC)CCCCCCCCC(=O)OC(CCCCCC)CCCCCC` [compound 126], the “Total flux (fluorescence expression intensity)” value was 5.39E+07, the “Spleen (fluorescence expression intensity)” value worked out at 6.87E+06, the “(Spleen/Total Flux) * 100%” value worked out at 12.75% and the “Multiple … (Spleen/Total Flux) to Compound 118” value is given as 11.18.
Turning to `CCCCCCCOCCC(=O)N(CCCN(C)C)C(CCCCCCCCC(=O)OC(CCCCCC)CCCCCC)CCCCCCCCC(=O)OC(CCCCCC)CCCCCC` [compound 127], the “Total flux (fluorescence expression intensity)” value turned out to be 3.56E+07, the “Spleen (fluorescence expression intensity)” value worked out at 4.60E+06, the “(Spleen/Total Flux) * 100%” value amounted to 12.92% and the “Multiple … (Spleen/Total Flux) to Compound 118” value worked out at 11.33.
Turning to `CCCCCCCCOCCC(=O)N(CCCN(C)C)C(CCCCCCCCC(=O)OC(CCCCCC)CCCCCC)CCCCCCCCC(=O)OC(CCCCCC)CCCCCC` [compound 128], the “Total flux (fluorescence expression intensity)” value is given as 5.62E+07, the “Spleen (fluorescence expression intensity)” value stood at 3.01E+06, the “(Spleen/Total Flux) * 100%” value was 5.36% and the “Multiple … (Spleen/Total Flux) to Compound 118” value worked out at 4.70.
For `CCCCCCC(CCCCCC)OC(=O)CCCCCCCCC(CCCCCCCCC(=O)OC(CCCCCC)CCCCCC)N(CCCN(C)C)C(=O)CCCOCCCC` [compound 129] the same measures were 3.53E+07, 1.33E+07, 37.68% and 33.05.
In the case of `CCCCCCCOCCCC(=O)N(CCCN(C)C)C(CCCCCCCCC(=O)OC(CCCCCC)CCCCCC)CCCCCCCCC(=O)OC(CCCCCC)CCCCCC` [compound 132], the “Total flux (fluorescence expression intensity)” value was 2.70E+07, the “Spleen (fluorescence expression intensity)” value came to 6.10E+06, the “(Spleen/Total Flux) * 100%” value was 22.59% and the “Multiple … (Spleen/Total Flux) to Compound 118” value turned out to be 19.82.
`CCCCCCC(CCCCCC)OC(=O)CCCCCCCCC(CCCCCCCCC(=O)OC(CCCCCC)CCCCCC)N(CCN(C)C)C(=O)COCCCCC` [compound 145]: the “Total flux (fluorescence expression intensity)” value is 1.21E+07, the “Spleen (fluorescence expression intensity)” value is recorded as 1.04E+05, the “(Spleen/Total Flux) * 100%” value amounted to 0.86% and the “Multiple … (Spleen/Total Flux) to Compound 118” value is 0.75.
As to `CCCCCCOCC(=O)N(CCN(C)C)C(CCCCCCCCC(=O)OC(CCCCCC)CCCCCC)CCCCCCCCC(=O)OC(CCCCCC)CCCCCC` [compound 146], the “Total flux (fluorescence expression intensity)” value was 1.37E+07, the “Spleen (fluorescence expression intensity)” value amounted to 6.65E+04, the “(Spleen/Total Flux) * 100%” value is given as 0.49% and the “Multiple … (Spleen/Total Flux) to Compound 118” value was found to be 0.43.
As to `CCCCCCCOCC(=O)N(CCN(C)C)C(CCCCCCCCC(=O)OC(CCCCCC)CCCCCC)CCCCCCCCC(=O)OC(CCCCCC)CCCCCC` [compound 147], the “Total flux (fluorescence expression intensity)” value was determined as 4.97E+06, the “Spleen (fluorescence expression intensity)” value is recorded as 1.13E+05, the “(Spleen/Total Flux) * 100%” value is 2.27% and the “Multiple … (Spleen/Total Flux) to Compound 118” value amounted to 1.99.
Turning to `CCCCCCCCOCC(=O)N(CCN(C)C)C(CCCCCCCCC(=O)OC(CCCCCC)CCCCCC)CCCCCCCCC(=O)OC(CCCCCC)CCCCCC` [compound 148], the “Total flux (fluorescence expression intensity)” value is listed as 4.45E+06, the “Spleen (fluorescence expression intensity)” value is 1.07E+05, the “(Spleen/Total Flux) * 100%” value is listed as 2.40% and the “Multiple … (Spleen/Total Flux) to Compound 118” value was 2.11.
`CCCCCCC(CCCCCC)OC(=O)CCCCCCCCC(CCCCCCCCC(=O)OC(CCCCCC)CCCCCC)N(CCN(C)C)C(=O)CCOCCCC` [compound 149]: the “Total flux (fluorescence expression intensity)” value is listed as 5.80E+06, the “Spleen (fluorescence expression intensity)” value turned out to be 1.29E+05, the “(Spleen/Total Flux) * 100%” value stood at 2.22% and the “Multiple … (Spleen/Total Flux) to Compound 118” value was determined as 1.95.
Turning to `CCCCCCC(CCCCCC)OC(=O)CCCCCCCCC(CCCCCCCCC(=O)OC(CCCCCC)CCCCCC)N(CCN(C)C)C(=O)CCOCCCCC` [compound 150], the “Total flux (fluorescence expression intensity)” value amounted to 2.06E+07, the “Liver (fluorescence expression intensity)” value turned out to be 5.51E+06, the “Spleen (fluorescence expression intensity)” value is 2.27E+05 and the “(Spleen/Total Flux) * 100%” value was 1.10%. The “Multiple … (Spleen/Total Flux) to Compound 118” value is 0.97.
On to `CCCCCCOCCC(=O)N(CCN(C)C)C(CCCCCCCCC(=O)OC(CCCCCC)CCCCCC)CCCCCCCCC(=O)OC(CCCCCC)CCCCCC` [compound 151], for which the “Total flux (fluorescence expression intensity)” value was found to be 2.29E+07, the “Liver (fluorescence expression intensity)” value came out at 8.91E+06, the “Spleen (fluorescence expression intensity)” value was 1.30E+05 and the “(Spleen/Total Flux) * 100%” value is 0.57%. For the same molecule, the “Multiple … (Spleen/Total Flux) to Compound 118” value is recorded as 0.50.
As to `CCCCCCOCCCC(=O)N(CCN(C)C)C(CCCCCCCCC(=O)OC(CCCCCC)CCCCCC)CCCCCCCCC(=O)OC(CCCCCC)CCCCCC` [compound 156], the “Total flux (fluorescence expression intensity)” value was determined as 3.07E+07, the “Liver (fluorescence expression intensity)” value came to 9.75E+06, the “Spleen (fluorescence expression intensity)” value turned out to be 2.34E+05 and the “(Spleen/Total Flux) * 100%” value was found to be 0.76%. For the same molecule, the “Multiple … (Spleen/Total Flux) to Compound 118” value turned out to be 0.67.
